Experiment [1] has as its system Ba/F3 KIT mutant cells. Put plainly: Ba/F3 mutant KIT Cell Proliferation Assays (resazurin). Type of experiment: cell-based. Conditions: Mus musculus, BaF3. The essentials: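 IC50 values come from resazurin fluorescence (ex 540, em 600) after 5 h dye exposure, added as a 440 μM solution. Cells were IL-3-independent Ba/F3 expressing mutant KIT from a lentiviral vector, puromycin-selected.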

Experiment [2] has as its system GIST 430 cells. Put plainly: GIST 430 Cell Proliferation Assay (resazurin). Type of experiment: cell-based. The conditions noted are these: Homo sapiens; GIST430 cell proliferation. The essentials:
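Five thousand cells per well were exposed to serially diluted compound in complete growth medium for 115 h at 37 degrees Celsius, 5% CO2. Resazurin was then added for a further 5 h, fluorescence read at 540 nm excitation/600 nm emission, and IC50 values calculated.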

Experiment [3] concerns the target c-KIT kinase (uKIT) (Homo sapiens (Human), UniProt P10721). Briefly: Biochemical Assay for uKIT (coupled pyruvate kinase/lactate dehydrogenase assay). The conditions noted are these: Inhibition of biochemical activity of uKIT kinase; 1 mM ATP. In short, it runs like this:
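Continuous coupled PK/LDH assay following NADH oxidation at 340 nm for 6 h at 30° C, with 16 nM or 4.36 nM KIT (two constructs), 0.7 mg/mL PE4Y, 1 mM ATP, pH 7.5. Rates from the 2-3 h window converted to percent inhibition versus controls; IC50 fitted.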

[4] abbreviates: Ba/F3 KIT AYdup-V654A mutant cell proliferation, read-out: AYdup-V654A IC50.
Where [5] appears, read: Ba/F3 KIT exon11del-V654A mutant cell proliferation, read-out: exon11del-V654A IC50.
Where [6] appears, read: Ba/F3 KIT exon11del-Y823D mutant cell proliferation, read-out: exon11del-Y823D IC50.
Setting [7] is: Ba/F3 KIT AYdup mutant cell proliferation, read-out: AYdup IC50.
Setting [8] is: Ba/F3 KIT AYdup-D816G mutant cell proliferation, read-out: AYdup-D816G IC50.

Structures are written as SMILES. Where two headings read alike, the source gives them in different places. Some results are limits rather than exact numbers.

Chain of c-KIT kinase (uKIT) (P10721 other isoform, or with tags, fused parts or gaps): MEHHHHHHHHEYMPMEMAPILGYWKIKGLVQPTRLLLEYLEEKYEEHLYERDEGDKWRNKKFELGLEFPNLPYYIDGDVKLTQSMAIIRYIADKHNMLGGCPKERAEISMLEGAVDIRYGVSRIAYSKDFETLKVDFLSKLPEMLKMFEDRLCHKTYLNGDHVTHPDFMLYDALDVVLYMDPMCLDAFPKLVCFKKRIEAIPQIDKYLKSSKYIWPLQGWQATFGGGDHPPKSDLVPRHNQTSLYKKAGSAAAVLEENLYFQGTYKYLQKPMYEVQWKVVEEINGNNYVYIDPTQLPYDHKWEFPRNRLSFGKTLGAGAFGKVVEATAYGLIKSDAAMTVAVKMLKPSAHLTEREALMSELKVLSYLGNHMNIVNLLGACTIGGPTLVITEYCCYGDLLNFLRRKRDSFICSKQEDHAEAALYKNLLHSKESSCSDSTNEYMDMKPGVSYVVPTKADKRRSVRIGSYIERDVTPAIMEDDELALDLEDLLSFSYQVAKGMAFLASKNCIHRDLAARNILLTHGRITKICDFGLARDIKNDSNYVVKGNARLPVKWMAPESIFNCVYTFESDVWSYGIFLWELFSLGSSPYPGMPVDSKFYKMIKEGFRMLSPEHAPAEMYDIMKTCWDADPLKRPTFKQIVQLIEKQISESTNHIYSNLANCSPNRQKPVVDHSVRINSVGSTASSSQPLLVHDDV

`COCCOc1cc(F)c2c(Nc3ccc(NC(=O)CC(=O)N4CCC[C@@H]4C)cc3)ncnc2c1` [Example 196]: the IC50 in experiment [1] (setting [4]) was in the range of 10 to 100 nM; in experiment [1] (setting [5]), 100 to 1000 nM; in experiment [1] (setting [6]), 100 to 1000 nM; in experiment [2], 10 to 100 nM; in experiment [3], 10 to 100 nM.

Regarding `COCCOc1cc(F)c2c(Nc3ccc(NC(=O)CC(=O)NC(C)(C)C4CC4)cc3)ncnc2c1` [Example 131], the IC50 in experiment [1] (setting [7]) is no more than 10 nM; in experiment [1] (setting [8]), 10 to 100 nM; in experiment [1] (setting [4]) it was 10 to 100 nM; in experiment [1] (setting [5]), no more than 10 nM; in experiment [1] (setting [6]) it was 10 to 100 nM; in experiment [2], 10 to 100 nM. The molecule further yielded an IC50 in experiment [3] of 10 to 100 nM.

Take `COCCOc1cc(F)c2c(Nc3ccc(NC(=O)CC(=O)NCC(F)(F)F)cc3)ncnc2c1` [Example 127]: the IC50 in experiment [1] (setting [4]) was 10 to 100 nM; in experiment [1] (setting [5]), 10 to 100 nM; in experiment [1] (setting [6]) it was greater than 1000 nM; in experiment [2] it was 10 to 100 nM; in experiment [3], 10 to 100 nM.

As for `COCCOc1cc(F)c2c(Nc3ccc(NC(=O)CC(=O)NCC4(C)CCC4)cc3)ncnc2c1` [Example 111], the IC50 is no more than 10 nM in experiment [1] (setting [7]); 10 to 100 nM in experiment [1] (setting [8]); 10 to 100 nM in experiment [1] (setting [4]); no more than 10 nM in experiment [1] (setting [5]); 10 to 100 nM in experiment [1] (setting [6]); no more than 10 nM in experiment [2]. Moreover, the IC50 in experiment [3] was no more than 10 nM.

With `COCCOc1cc(F)c2c(Nc3ccc(NC(=O)CC(=O)NCC4CCCC4)cc3)ncnc2c1` [Example 79], the IC50 in experiment [1] (setting [4]) lay within 10 to 100 nM; in experiment [1] (setting [5]), 10 to 100 nM; in experiment [1] (setting [6]), 100 to 1000 nM; in experiment [2] it was 10 to 100 nM; in experiment [3], 10 to 100 nM.

`COCCOc1cc(F)c2c(Nc3ccc(NC(=O)CC(=O)NCC4CC(F)(F)C4)cc3)ncnc2c1` [Example 115]: the IC50 in experiment [1] (setting [4]) lay within 10 to 100 nM; in experiment [1] (setting [5]), 10 to 100 nM; in experiment [1] (setting [6]), 100 to 1000 nM; in experiment [2], 10 to 100 nM; in experiment [3], 10 to 100 nM.

Consider `COCCOc1cc(F)c2c(Nc3ccc(NC(=O)N[C@H]4CC[C@H](C(F)(F)F)CC4)cc3)ncnc2c1` [Example 30], for which the IC50 was no more than 10 nM in experiment [1] (setting [8]); 10 to 100 nM in experiment [1] (setting [4]); 10 to 100 nM in experiment [1] (setting [5]); 10 to 100 nM in experiment [1] (setting [6]); no more than 10 nM in experiment [2]; no more than 10 nM in experiment [3].

In the case of `COC[C@@H](C)Oc1cc(F)c2c(Nc3ccc(NC(=O)NCCC(C)(C)F)cc3)ncnc2c1` [Example 155], the IC50 was 10 to 100 nM in experiment [1] (setting [4]); 10 to 100 nM in experiment [1] (setting [5]); 100 to 1000 nM in experiment [1] (setting [6]); 100 to 1000 nM in experiment [2]; no more than 10 nM in experiment [3].

On to `COCCOc1cc(F)c2c(Nc3ccc(NC(=O)CC(=O)NC(C)(C)C(F)(F)F)cc3)ncnc2c1` [Example 130], for which the IC50 in experiment [1] (setting [7]) is no more than 10 nM; in experiment [1] (setting [8]), 10 to 100 nM; in experiment [1] (setting [4]), 10 to 100 nM; in experiment [1] (setting [5]), no more than 10 nM; in experiment [1] (setting [6]) it was 10 to 100 nM; in experiment [2] it was 10 to 100 nM. Besides, the IC50 in experiment [3] fell in the range of 10 to 100 nM.

For the molecule `COCCOc1cc(OC)c2c(Nc3ccc(NC(=O)CC(=O)NC(C)(C)C)cc3)ncnc2c1` [Example 177], the IC50 in experiment [1] (setting [4]) is 10 to 100 nM; in experiment [1] (setting [5]) it was 100 to 1000 nM; in experiment [1] (setting [6]), 100 to 1000 nM; in experiment [2] it was 10 to 100 nM; in experiment [3], 10 to 100 nM.

As to `COCCCc1ccc2c(Nc3ccc(NC(=O)NCCC(C)(C)F)cc3)cnnc2c1` [Example 190, 1-(3-fluoro-3-methylbutyl)-3-(4-((7-(3-methoxypropyl)cinnolin-4-yl)amino)phenyl)urea], the IC50 in experiment [1] (setting [4]), in experiment [1] (setting [5]), in experiment [1] (setting [6]), in experiment [2] and in experiment [3] was 10 to 100 nM in each case.

Take `COCCOc1cc(F)c2c(Nc3ccc(NC(=O)OCCC(C)(C)C#N)cc3)ncnc2c1` [Example 46]: the IC50 in experiment [1] (setting [7]) was no more than 10 nM; in experiment [1] (setting [8]) it was 10 to 100 nM; in experiment [1] (setting [4]), 100 to 1000 nM; in experiment [1] (setting [5]), 10 to 100 nM; in experiment [1] (setting [6]), 100 to 1000 nM; in experiment [2], 10 to 100 nM. The molecule also showed an IC50 in experiment [3] of no more than 10 nM.

As for `COCCOc1cc(F)c2c(Nc3ccc(NC(=O)CC(=O)NCCC(C)(C)F)cc3)ncnc2c1` [Example 119], the IC50 in experiment [1] (setting [4]) was in the range of 10 to 100 nM; in experiment [1] (setting [5]) it was 10 to 100 nM; in experiment [1] (setting [6]), 100 to 1000 nM; in experiment [2], 10 to 100 nM; in experiment [3] it was 10 to 100 nM.

The values above are taken from patent US20240116877A1, “KIT KINASE INHIBITORS AND METHODS OF USE THEREOF” (Deciphera Pharmaceuticals, LLC, priority 2021, published 2024).
